Literature values as cited in patent US10448644B2, “Fungicide composition for natural fibers and natural fiber components” (Lisa Draexlmaier Gmbh, priority 2014, dated 2019).

Assays:
[1] = according to the German Federal Institute for Health Protection and Veterinary Medicine
[2] = animal experiments

Compound: c1ccc2[nH]c(-c3cscn3)nc2c1 [thiabendazole]
- toxicity [1]: low
- carcinogenic effect [2]: found to have a carcinogenic effect
